{"source": "paper PMC5986058", "about": "(FEBS Open Bio, 2018)", "key": {"[1]": {"biological_target": "T1, LTAaj (L-threonine aldolase from Aeromonas jandaei; L-allo-threonine aldolase) (Aeromonas jandaei, UniProt O07051)", "T1 construct": "gene ltaA; C-terminal His-tag, expressed in E. coli BL21(DE3), Ni-NTA purified, homotetramer, PLP-dependent", "T1 sequence (O07051 1-338)": "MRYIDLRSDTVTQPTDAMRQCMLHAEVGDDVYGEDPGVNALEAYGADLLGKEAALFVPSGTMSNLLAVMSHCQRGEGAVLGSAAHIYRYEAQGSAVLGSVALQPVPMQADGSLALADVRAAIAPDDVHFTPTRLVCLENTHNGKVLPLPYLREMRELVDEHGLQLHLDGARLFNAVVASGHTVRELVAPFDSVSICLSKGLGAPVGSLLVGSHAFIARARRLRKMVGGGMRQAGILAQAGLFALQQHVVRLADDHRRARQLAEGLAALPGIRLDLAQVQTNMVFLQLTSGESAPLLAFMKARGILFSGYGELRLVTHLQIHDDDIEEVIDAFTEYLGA", "assay": "UV-vis spectroscopy of internal aldimine ([…]-420 nm)", "assay_type": "binding", "details": "50 mM sodium phosphate pH 8.0, 22 °C; covalent Schiff base with K199"}, "[2]": {"biological_target": "T1, LTAaj (L-threonine aldolase from Aeromonas jandaei; L-allo-threonine aldolase)", "assay": "UV-vis spectroscopy of external aldimine ([…] nm) and quinonoid ([…] nm)", "assay_type": "binding", "details": "50 mM sodium phosphate pH 8.0, 22 °C, 0.1 M glycine; PLP enzyme; covalent"}}}
{"smiles": "Cc1ncc(COP(=O)(O)O)c(C=O)c1O", "note": "[PLP]", "values": [{"measurement": "UV-vis spectroscopy of internal aldimine (410-420 nm)", "setting": "[1]", "result": "Formation of the (A) internal aldimine"}]}
{"smiles": "NCC(=O)O", "note": "[glycine]", "values": [{"measurement": "UV-vis spectroscopy of external aldimine (420 nm) and quinonoid (495 nm)", "setting": "[2]", "result": "external aldimine with the glycine substrate in the wild type LTAaj and its mutants"}]}
